These results are taken from patent US6399562B2, “Solvent compositions” (Ausimont S.p.A., priority 2000, dated 2002).

The structures appear in SMILES notation. Read-outs that look alike come from different tables or passages of the source.

Data set [1] can be described thus: Evaluation of the azeotropic behaviour: boiling temperature at 1.013 bar. The following applies: pressure of 1.013 absolute bar. In kind it is physicochemical. The protocol:
The mixture of known composition and weight is introduced into a small glass cell, previously evacuated, having an internal volume equal to about 20 cm^3, equipped with metal connections, feeding valve and with a pressure transducer to evaluate the system vapour pressure.
The filling ratio by volume is initially equal to about 0.8% by v.
The temperature is measured close to the equilibrium cell by a thermometer the accuracy of which is equal to +/−0.01° C.; particular attention has been paid so that the external temperature measured in the bath is really the internal one of the cell.
By changing the composition of the mixture it is possible to evaluate possible deviations with respect to the ideality and therefore to identify the azeotropic composition which, as said, will be characterized by an absolute minimum or maximum with respect to the pure components.

Data set [2] concerns rat. The data set is described as follows: Acute toxicity in rat by inhalation, LC50.
Data set [3] is described as follows: Removal of oily products from printed circuits, oil (3). The following applies: 5 minutes of dipping. The protocol:
(§1) The removal capability of oily products from printed circuits has been checked according to the following procedure:
(§2) a known amount of an oily product is uniformly spread on the surface of a printed circuit having 35×9 mm sizes; 0.100 g of oil are placed only on a single surface of the circuit, then the article is dipped into the solution to be tested.
(§3) After 5 minutes of dipping, the circuit is allowed to dry for additional 5 minutes at room temperature so as to remove the solvent traces and then is weighed again on an analytical balance.
(§4) Tests of the solvent mixtures are carried out close to the boiling temperature. The compositions are placed in a vessel equipped with a condenser which recovers the vapour of the boiling solution.
(§5) In all the tests 30 ml of the solvent solution have been used.
(§6) The results are reported in Table 6 and are expressed as removed oil percentage.

A short description of data set [4]: chemical-physical properties of the hydrofluoropolyether.
The nature of data set [5]: Removal of oily products from printed circuits, oil (4). As to conditions: 5 minutes of dipping. The protocol:
as §1, §2, §3, §4, §5, §6

The test system of data set [6] is rat. The data set is described as follows: Acute toxicity in rat by os, LD50.
Data set [7] in a line: Removal of oily products from printed circuits, oil (1). The following applies: 5 minutes of dipping. The protocol: as §1, §2, §3
[…] The compositions are placed in a vessel equipped with a condenser which recovers the vapour of the boiling solution.
as §5, §6

The nature of data set [8]: Removal of oily products from printed circuits, oil (2). The following applies: 5 minutes of dipping. The protocol: as §1, §2, §3, §4, §5, §6
Data set [9] in a line: Preliminary studies relating to acute toxicity. Format: in vivo.
The conditions of data set [10]: background statement; cited from earlier work.
Data set [11] is described as follows: solubility of propellants in solvent compositions for aerosol applications. Format: physicochemical. The protocol: The solubility of HFC 134a, HFC 227ea and HFC 236ea with some solvent compositions for aerosol applications for the cleaning of electronic components has been studied. The solvent composition is placed in a glass test tube having thick walls, resistant to high pressures, and closed at an end by a metal valve. After cooling, the propellant is fed to the test tube and mixed with the solvent mixture. The system is introduced in a thermostatic bath and heated up to 0°, 25° and 50° C. The complete solubility of the propellant in the solvent composition used for the test has been visually observed. The solubility results of the used propellants in the solvent compositions, at the above three different temperatures, are reported in Table 7.

For the compound `CCCBr` [1-Bromo-propane, 1-bromo-propane], the “Boiling T of pure Component B” value in data set [1] was “Boiling T = 69.60 °C”.
For `FC(F)(Cl)C(F)(Cl)Cl` [CFC 113, 1,1,2-trichloro-1,2,2-trifluoroethane], the “Acute toxicity in rat by inhalation, LC50” value with rat [2] is given as 50,000 ppmv/4 hours. Besides, the “Percentage of removed oil, oil type (3)” value in data set [3] (23 ° C.) and in [3] (47 ° C.) was 100 % by weight in each case. Further, the “Isotherm evaporation rate at 20° C.” value in data set [4] was 1 mg/min. The “Surface tension at 20° C.” value in data set [4] is on record as 18.1 dynes/cm. The “Liquid density at 25° C.” value in data set [4] came to 1.56 g/mL. For the same compound, the Evaporation latent heat in [4] (at 1.013 bar) stood at 144 kJ/kg. Moreover, the Flammability in air entry in [4] is reported as “non”. Besides, the “Percentage of removed oil, oil type (4)” value in [5] (23 ° C.) and in data set [5] (47 ° C.) was 100 % by weight each time. Further, the “Acute toxicity in rat by os, LD50” value in the data set with rat [6] was 43,000 ppmv/4 hours. For the same compound, the “Percentage of removed oil, oil type (1)” value in data set [7] (23 ° C.) and in data set [7] (47 ° C.) was 100 % by weight each time. For the same compound, the “Percentage of removed oil, oil type (2)” value came out at 99.5 % by weight in data set [8] (23 ° C.) and 100 % by weight in data set [8] (47 ° C.).
On to `FC(F)OC(F)(F)C(F)(F)OC(F)F` [HCF2OCF2CF2OCF2H, 1-difluoromethoxy-1,1,2,2-tetrafluoroethyl difluoromethyl ether], for which the “Acute toxicity in rat by inhalation, LC50” value in the data set with rat [2] is reported as >32,000 ppmv/4 hours. Further, the “acute toxicity, biological activity” value in [9] is recorded as “low biological activity”. Besides, in [4], the “dehydrofluorination reactions (chemical stability)” value is reported as “does not undergo dehydrofluorination reactions”, the “Isotherm evaporation rate at 20° C.” value is 0.6 mg/min, the “Surface tension at 20° C.” value is recorded as 15.5 dynes/cm and the “Liquid density at 25° C.” value turned out to be 1.60 g/mL. Besides, in [4], the Flammability in air result is recorded as “non”. In data set [4] (at 1.013 bar), this compound came in with a Boiling temperature of 58.21 °C and an Evaporation latent heat of 139 kJ/kg. The “Acute toxicity in rat by os, LD50” value in the data set on rat [6] was >5,000 ppmv/4 hours.
On to `CC(F)(Cl)Cl` [HCFC 141b], for which the flammability result in data set [10] is “moderately flammable”.
On to `FCC(F)(F)F` [HFC 134a, 1,1,1,2-tetrafluoroethane], for which the “solubility of the propellant in the solvent composition” value (“solubility of the propellant” for short) in data set [11] (in HCF2OCF2CF2OCF2H/Bromo-propane (75.0) (25.0), propellant 57.2 % by wt, 0 ° C.) is “S”; in [11] (in HCF2OCF2CF2OCF2H/Bromo-propane (75.0) (25.0), propellant 57.2 % by wt, 25 ° C.), “S”; in data set [11] (in HCF2OCF2CF2OCF2H/Bromo-propane (75.0) (25.0), propellant 57.2 % by wt, 50 ° C.) it was “S”; in [11] (in HCF2OCF2CF2OCF2H/Isopentane (45.0) (55.0), propellant 51.2 % by wt, 0 ° C.) it was “S”; in [11] (in HCF2OCF2CF2OCF2H/Isopentane (45.0) (55.0), propellant 51.2 % by wt, 25 ° C.), “S”; in data set [11] (in HCF2OCF2CF2OCF2H/Isopentane (45.0) (55.0), propellant 51.2 % by wt, 50 ° C.), “S”. The “solubility of the propellant” value in data set [11] (in HCF2OCF2CF2OCF2H/Methyl-acetate (75.0) (25.0), propellant 51.3 % by wt, 0 ° C.) is “S”; in [11] (in HCF2OCF2CF2OCF2H/Methyl-acetate (75.0) (25.0), propellant 51.3 % by wt, 25 ° C.), “S”; in data set [11] (in HCF2OCF2CF2OCF2H/Methyl-acetate (75.0) (25.0), propellant 51.3 % by wt, 50 ° C.), “S”.
In the case of `FC(C(F)(F)F)C(F)(F)F` [HFC 227ea, 1,1,1,2,3,3,3-heptafluoropropane], the “solubility of the propellant” value is on record as “S” in data set [11] (in HCF2OCF2CF2OCF2H/Methyl-acetate (75.0) (25.0), propellant 53.2 % by wt, 0 ° C.); “S” in data set [11] (in HCF2OCF2CF2OCF2H/Methyl-acetate (75.0) (25.0), propellant 53.2 % by wt, 25 ° C.); “S” in data set [11] (in HCF2OCF2CF2OCF2H/Methyl-acetate (75.0) (25.0), propellant 53.2 % by wt, 50 ° C.).
Consider `FC(F)C(F)C(F)(F)F` (centres unmarked) [HFC 236ea, 1,1,1,2,3,3-hexafluoropropane], for which the “solubility of the propellant” value in [11] is listed as “S”.
On to `COC(C)=O` [Methyl-acetate, methyl-acetate], for which the “Boiling T of pure Component B” value in data set [1] was “Boiling T = 55.78 °C”.
